For orientation: IC50 means the midpoint of a concentration-inhibition curve.

In the test the target is T1, hROMK (hKir1.1) (Homo sapiens, UniProt P48048).
T1 construct: expressed in transfected cells
T1 sequence (P48048 1-391): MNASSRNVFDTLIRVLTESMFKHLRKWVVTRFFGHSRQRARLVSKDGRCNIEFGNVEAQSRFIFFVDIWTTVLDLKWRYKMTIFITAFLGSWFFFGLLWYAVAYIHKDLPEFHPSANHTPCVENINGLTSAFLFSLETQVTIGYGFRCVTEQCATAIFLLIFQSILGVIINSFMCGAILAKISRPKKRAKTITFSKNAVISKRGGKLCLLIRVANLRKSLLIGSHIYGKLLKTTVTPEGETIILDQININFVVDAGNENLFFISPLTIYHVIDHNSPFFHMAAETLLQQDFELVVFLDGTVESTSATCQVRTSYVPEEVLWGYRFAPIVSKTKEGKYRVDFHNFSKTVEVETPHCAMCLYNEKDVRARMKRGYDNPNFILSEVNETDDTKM
The test can be described thus: Thallium Flux Assay (ROMK channel functional thallium flux, FLIPR-Tetra). Type of test: cell-based. The settings on record: HEK293 cells stably expressing hROMK (hKir1.1); 30 min compound incubation. In a few lines: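 Thallium flux read by FluxOR fluorescence ([…]) for ~10 min after adding 3 mM Tl+/0.3 mM K+ final. Stable HEK-hKir1.1 cells were dye-loaded 90 min, exposed to compound 30 min at room temperature in ouabain/probenecid buffer; IC50 relative to a 3 μM control inhibitor.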
On to `CC1=C(N2C=CC3(CCN(CCc4cnc(-n5cnnn5)cn4)CC3)C2=O)COC1=O` [Example 251, 2-(4-methyl-5-oxo-2,5-dihydrofuran-3-yl)-1-oxo-8-{2-[5-(1H-tetrazol-1-yl)pyrazin-2-yl]ethyl}-2-aza-8-azoniaspiro[4.5]dec-3-ene], for which the IC50 came out at 50 nM.

Regarding `CC1=C(N2CCC3(CCN(C[C@H](O)c4cnc(-n5cnnn5)nc4C)CC3)C2=O)COC1=O` [Example 85, 8-{(2R)-2-hydroxy-2-[4-methyl-2-(1H-tetrazol-1-yl)pyrimidin-5-yl]ethyl}-2-(4-methyl-5-oxo-2,5-dihydrofuran-3-yl)-1-oxo-2-aza-8-azoniaspiro[4.5]decane], half-maximal inhibition (IC50) was put at 30 nM.

Compound `CC1=C(N2CCC3(CCN(C[C@@H](O)c4cc(-n5cnnn5)ccn4)CC3)C2=O)COC1=O` [Example 71, 8-{(2R)-2-hydroxy-2-[4-(1H-tetrazol-1-yl)pyridin-2-yl]ethyl}-2-(4-methyl-5-oxo-2,5-dihydrofuran-3-yl)-1-oxo-2-aza-8-azoniaspiro[4.5]decane] registered an IC50 of 70 nM.

`CC1=C(N2CC(O)C3(CCN(CCc4ccc(-n5cnnn5)nn4)CC3)C2=O)COC1=O` (single isomer, unassigned) [Example 243, 4-hydroxy-2-(4-methyl-5-oxo-2,5-dihydrofuran-3-yl)-1-oxo-8-{2-[6-(1H-tetrazol-1-yl)pyridazin-3-yl]ethyl}-2-aza-8-azoniaspiro[4.5]decane] displayed a half-inhibitory concentration (IC50) of 210 nM.

Compound `COC1CN(C2=C(C)C(=O)OC2)C(=O)C12CCN(C[C@H](O)c1ccc(-n3cnnn3)nc1)CC2` (single isomer, unassigned) [Example 114] yielded a half-maximal inhibitory concentration (IC50) of 60 nM.

`CC1=C(N2CCC3(CCN(C[C@H](O)c4cnc(-n5cnnn5)c(C)n4)CC3)C2=O)COC1=O` [Example 87, 8-{(2S)-2-hydroxy-2-[6-methyl-5-(1H-tetrazol-1-yl)pyrazin-2-yl]ethyl}-2-(4-methyl-5-oxo-2,5-dihydrofuran-3-yl)-1-oxo-2-aza-8-azoniaspiro[4.5]decane] displayed an IC50 of 50 nM.

In the case of `CC1=C(N2C(=O)C3(CCN(CCc4ccc(-n5cnnn5)nn4)CC3)CC2C)COC1=O` (racemic) [Example 240, 3-methyl-2-(4-methyl-5-oxo-2,5-dihydrofuran-3-yl)-1-oxo-8-{2-[6-(1H-tetrazol-1-yl)pyridazin-3-yl]ethyl}-2-aza-8-azoniaspiro[4.5]decane], the IC50 turned out to be 30 nM.

Consider `O=C1C=C(N2C(=O)C3(CCN(C[C@H](O)c4cnc(-n5cnnn5)cn4)CC3)CC2C2CC2)CO1` (mixture of isomers) [Example 212, 3-cyclopropyl-8-{(2S)-2-hydroxy-2-[5-(1H-tetrazol-1-yl)pyrazin-2-yl]ethyl}-2-(5-oxo-2,5-dihydrofuran-3-yl)-2,8-diazaspiro[4.5]decan-1-one], for which the IC50 was found to be 120 nM.

For `Cc1cc(-n2cnnn2)nnc1CCN1CCC2(CC1)C[C@H](C)N(C1=CC(=O)OC1)C2=O` [Example 262, (3S)-3-methyl-8-{2-[4-methyl-6-(1H-tetrazol-1-yl)pyridazin-3-yl]ethyl}-2-(5-oxo-2,5-dihydrofuran-3-yl)-2,8-diazaspiro[4.5]decan-1-one], the half-maximal inhibitory concentration (IC50) turned out to be 4 nM.

`O=C1C=C(N2C(=O)C3(CCN(C[C@H](O)c4ccc(-n5cnnn5)nc4)CC3)CC2C2CC2)CO1` (mixture of isomers) [Example 215, 3-cyclopropyl-8-{(2R)-2-hydroxy-2-[6-(1H-tetrazol-1-yl)pyridin-3-yl]ethyl}-2-(5-oxo-2,5-dihydrofuran-3-yl)-2,8-diazaspiro[4.5]decan-1-one] yielded an IC50 of 30 nM.

`CC1=C(N2CCC3(CCN(C[C@@H](O)c4nnc(-n5cnnn5)cc4C)CC3F)C2=O)COC1=O` (single isomer, unassigned) [Example 186] displayed an IC50 of 70 nM.

With `CC1OC(=O)C=C1N1C(=O)C2(CCN(C[C@H](O)c3ccc(-n4cnnn4)nc3)CC2)C[C@H]1C` (single isomer, unassigned) [Example 230], the IC50 came to 80 nM.

`CC1=C(N2CCC3(CCN(C[C@@H](O)c4cnc(-n5cnnn5)nc4C)CC3)C2=O)COC1=O` [Example 86, 8-{(2S)-2-hydroxy-2-[4-methyl-2-(1H-tetrazol-1-yl)pyrimidin-5-yl]ethyl}-2-(4-methyl-5-oxo-2,5-dihydrofuran-3-yl)-1-oxo-2-aza-8-azoniaspiro[4.5]decane] registered an IC50 of 40 nM.

Take `CC1=C(N2CCC3(CCN([C@H](CO)Cc4ccc(-n5cnnn5)nc4)CC3)C2=O)COC1=O` (single isomer, unassigned) [Example 296]: the IC50 came to 20 nM.

With `CC1=C(N2CCC3(CCN(C[C@H](O)c4ccc(-n5cnnn5)nc4C)CC3F)C2=O)COC1=O` (single isomer, unassigned) [Example 117], the IC50 was determined as 50 nM.

As for `CC1=C(N2C=CC3(CCN(C[C@H](O)c4cnc(-n5cnnn5)cn4)CC3)C2=O)COC1=O` [Example 163, 8-{(2S)-2-hydroxy-2-[5-(1H-tetrazol-1-yl)pyrazin-2-yl]ethyl}-2-(4-methyl-5-oxo-2,5-dihydrofuran-3-yl)-1-oxo-2-aza-8-azoniaspiro[4.5]dec-3-ene], the IC50 was 100 nM.

On to `C[C@H]1CC2(CCN(C[C@H](O)c3cnc(-n4cnnn4)cn3)CC2)C(=O)N1C1=CC(=O)OC1` [Example 77, (3S)-8-{(2S)-2-hydroxy-2-[5-(1H-tetrazol-1-yl)pyrazin-2-yl]ethyl}-3-methyl-1-oxo-2-(5-oxo-2,5-dihydrofuran-3-yl)-2-aza-8-azoniaspiro[4.5]decane], for which the IC50 came to 10 nM.

The compound `COC1CN(C[C@H](O)c2cnc(-n3cnnn3)cn2)CCC12CCN(C1=C(C)C(=O)OC1)C2=O` (single isomer, unassigned) [Example 172] registered an IC50 of 180 nM.

`Cc1cc([C@@H](O)CN2CCC3(CC2)CCN(C2=CC(=O)OC2)C3=O)ncc1-n1cnnn1` [Example 7, 8-{(2S)-2-hydroxy-2-[4-methyl-5-(1H-tetrazol-1-yl)pyridin-2-yl]ethyl}-1-oxo-2-(5-oxo-2,5-dihydrofuran-3-yl)-2-aza-8-azoniaspiro[4.5]decane]: the IC50 was 80 nM.

Take `CC1=C(N2CCC3(CCN(C[C@@H](O)c4ccc(-n5cnnn5)nc4)CC3F)C2=O)COC1=O` (single isomer, unassigned) [Example 193]: the IC50 worked out at 20 nM.

`CC1=C(N2CCC3(CCN(C[C@H](O)c4cc(C)c(-n5cnnn5)nn4)CC3)C2=O)COC1=O` [Example 128, 8-{(2S)-2-hydroxy-2-[5-methyl-6-(1H-tetrazol-1-yl)pyridazin-3-yl]ethyl}-2-(4-methyl-5-oxo-2,5-dihydrofuran-3-yl)-1-oxo-2-aza-8-azoniaspiro[4.5]decane] yielded an IC50 of 80 nM.

Regarding `CC1=C(N2CCC3(CCN(CCc4cc(C)c(-n5cnnn5)nn4)CC3)C2=O)COC1=O` [Example 237, 2-(4-methyl-5-oxo-2,5-dihydrofuran-3-yl)-8-{2-[5-methyl-6-(1H-tetrazol-1-yl)pyridazin-3-yl]ethyl}-1-oxo-2-aza-8-azoniaspiro[4.5]decane], half-maximal inhibition (IC50) required 20 nM.

Compound `CC1=C(N2CCC3(CCN(C[C@H](O)c4cnc(-n5cnnn5)cc4C(F)F)CC3)C2=O)COC1=O` (stereo in doubt) [Example 147, 8-{2-[4-(difluoromethyl)-6-(1H-tetrazol-1-yl)pyridin-3-yl]-2-hydroxyethyl}-2-(4-methyl-5-oxo-2,5-dihydrofuran-3-yl)-2,8-diazaspiro[4.5]decan-1-one] yielded an IC50 of 40 nM.

For the compound `CC1=C(N2CCC3(CC4CCC(C3)N4C[C@H](O)c3cnc(-n4cnnn4)cn3)C2=O)COC1=O` (stereo partly drawn) [Example 48, (1R,5R)-8-{(2S)-2-hydroxy-2-[5-(1H-tetrazol-1-yl)pyrazin-2-yl]ethyl}-1′-(4-methyl-5-oxo-2,5-dihydrofuran-3-yl)-2′-oxospiro[8-azoniabicyclo[3.2.1]octane-3,3′-pyrrolidine]], inhibition was half-maximal at 30 nM (IC50).

`CC1=C(N2C=CC3(CCN(C[C@@H](O)c4ccc(-n5cnnn5)nc4)CC3)C2=O)COC1=O` [Example 156, 8-{(2S)-2-hydroxy-2-[6-(1H-tetrazol-1-yl)pyridin-3-yl]ethyl}-2-(4-methyl-5-oxo-2,5-dihydrofuran-3-yl)-1-oxo-2-aza-8-azoniaspiro[4.5]dec-3-ene]: the IC50 worked out at 20 nM.

With `COC1CN(CCc2nnc(-n3cnnn3)cc2C)CCC12CCN(C1=C(C)C(=O)OC1)C2=O` (single isomer, unassigned) [Example 260, 6-methoxy-2-(4-methyl-5-oxo-2,5-dihydrofuran-3-yl)-8-{2-[4-methyl-6-(1H-tetrazol-1-yl)pyridazin-3-yl]ethyl}-2,8-diazaspiro[4.5]decan-1-one], the IC50 was 120 nM.

In turn, `CC1=C(N2CCC3(CCN(C[C@H](O)c4cccc(-n5cnnn5)c4)CC3)C2=O)COC1=O` [Example 61, 8-{(2R)-2-hydroxy-2-[3-(1H-tetrazol-1-yl)phenyl]ethyl}-2-(4-methyl-5-oxo-2,5-dihydrofuran-3-yl)-1-oxo-2-aza-8-azoniaspiro[4.5]decane] registered an IC50 of 70 nM.

Consider `COc1cc(-n2cnnn2)ncc1[C@H](O)CN1CCC2(CC1)CCN(C1=C(C)C(=O)OC1)C2=O` [Example 94, 8-{(2S)-2-hydroxy-2-[4-methoxy-6-(1H-tetrazol-1-yl)pyridin-3-yl]ethyl}-2-(4-methyl-5-oxo-2,5-dihydrofuran-3-yl)-1-oxo-2-aza-8-azoniaspiro[4.5]decane], for which the IC50 stood at 20 nM.

Consider `CC1=C(N2C(=O)C3(CC2C)CC2CCC(C3)N2C[C@@H](O)c2ccc(-n3cnnn3)nc2)COC1=O` (single isomer, unassigned) [Example 134], for which the half-inhibitory concentration (IC50) came to 60 nM.

The values are drawn from patent publication US9765074B2, “Inhibitors of the renal outer medullary potassium channel” (Merck Sharp & Dohme Corp., priority 2013, dated 2017).
